Legend:
tubulin [1] = conditions: even at 100 μM (Zhou et al., 2003); cited from earlier work
MDA-MB-231 cells = test: Sulforhodamine B cell proliferation assay; format: cell-based; conditions: Homo sapiens; MDA-MB-231, 72 hours, SRB
Experimental: (§1) Sulforhodamine B (SRB) assay: The cell proliferation assay was performed in 96-well plates as described previously. Adherent cells (MCF-7 and MDA-MB-231) were seeded in 96-well plates at a density of 5×10^3 cells per well. They were treated with increasing concentrations of the halogenated analogs the next day while in log-phase growth. After 72 hours of drug treatment, cells were fixed with 50% trichloroacetic acid and stained with 0.4% sulforhodamine B dissolved in 1% acetic acid. After 30 minutes, cells were then washed with 1% acetic acid to remove the unbound dye. The protein-bound dye was extracted with 10 mM Tris base to determine the optical density at 564-nm wavelength.

MCF-7 cells [2] = test: Sulforhodamine B cell proliferation assay; format: cell-based, human; conditions: Homo sapiens, MCF7, 72 h, MCF-7, 72 hours, SRB
Experimental: as §1

CEM cells = test: In vitro cell proliferation MTS assay; format: cell-based; conditions: Homo sapiens, CCRF-CEM, 72 hours
Experimental: (§2) Suspension cells (CEM, CEMNLB100 and CEM/VM-1-5) were cultured in RPMI-1640 media containing 10% FBS and then seeded into 96-well plates at a density of 5×10^3 cells per well and were treated with increasing gradient concentrations of 9-nitro-nos for 72 hours. Measurement of cell proliferation was performed colorimetrically by 3-(4,5-dimethylthiazol-2-yl)-5-(3-carboxymethoxyphenyl)-2-(4-sulphophenyl)-2H-tetrazolium, inner salt (MTS) assay, using the CellTiter96 AQueous One Solution Reagent (Promega, Madison, Wis.). Cells were exposed to MTS for 3 hours and absorbance was measured using a microplate reader (Molecular Devices, Sunnyvale, Calif.) at an optical density (OD) of 490 nm. The percentage of cell survival as a function of drug concentration for both the assays was then plotted to determine the IC50 value, which stands for the drug concentration needed to prevent cell proliferation by 50%.
as §2, with “(CEM)” for “(CEM, CEMNLB100 and CEM/VM-1-5)”, “were” for “were cultured in RPMI-1640 media containing 10% FBS and then”, “increasing” for “increasing gradient”, “all halogenated analogs” for “9-nitro-nos”

MCF-7 cells [3] = test: Cell cycle analysis (propidium iodide, flow cytometry); format: cell-based, human; conditions: MCF-7, 25 μM, mean ± S.E.M.
Experimental: The flow cytometric evaluation of the cell cycle status was performed as described previously. Briefly, 2×10^6 cells were centrifuged, washed twice with ice-cold PBS, and fixed in 70% ethanol. Tubes containing the cell pellets were stored at 4° C. for at least 24 hours. Cells were then centrifuged at 1000×g for 10 min and the supernatant was discarded. The pellets were washed twice with 5 ml of PBS and then stained with 0.5 ml of propidium iodide (0.1% in 0.6% Triton-X in PBS) and 0.5 ml of RNase A (2 mg/ml) for 45 minutes in dark. Samples were then analyzed on a FACSCalibur flow cytometer (Beckman Coulter Inc., Fullerton, Calif.).

tubulin [4] = target: T1, tubulin; conditions: values with literature reference [18], [12], [43]; read-out: dissociation constant (Kd) for binding to tubulin; cited from earlier work
T1 construct: other: 2 μM tubulin, 45 min at 37° C., double reciprocal plot; rate and extent of tubulin polymerization; other: 25 μM or 100 μM

CEM/VM-1-5 cells = conditions: CEM/VM-1-5 (Morgan et al., 2000); cited from earlier work
CEM/VLB100 cells = conditions: CEM/VLB100 (Beck and Cirtain, 1982); cited from earlier work

Question: With COc1ccc2c(c1OC)C(=O)O[C@@H]2[C@H]1c2c(cc3c(c2OC)OCO3)CCN1C [Nos, (S)-6,7-dimethoxy-3-((R)-4-methoxy-6-methyl-5,6,7,8-tetrahydro[1,3]-dioxolo-[4,5-g]isoquinolin-5-yl)isobenzo-furan-1(3H)-one, reference compound] as the compound, how does the “microtubule polymerization upon binding tubulin” value (tubulin [1]) read?
Answer: does not significantly promote or inhibit microtubule polymerization

Question: What about the IC50 (MDA-MB-231 cells) of the same compound?
Answer: 36.3 ± 1.8 µM

Question: And the IC50 (MCF-7 cells [2])?
Answer: 39.6 ± 2.2 µM

Question: What about the IC50 (CEM cells) of the same compound?
Answer: 16.6 ± 2.4 µM

Question: What about the G0/G1 (MCF-7 cells [3]; 0 h) of the same compound?
Answer: 54.8 ± 0.03%

Question: What about the G2/M (MCF-7 cells [3]; 0 h) of the same compound?
Answer: 29.9 ± 2.2%

Question: What about the S (MCF-7 cells [3]; 0 h) of the same compound?
Answer: 13.2 ± 0.2%

Question: And the Sub-G1 (MCF-7 cells [3]; 0 h)?
Answer: 0.2 ± 0.03%

Question: What about the G0/G1 (MCF-7 cells [3]; 24 h) of the same compound?
Answer: 18.3 ± 3.3%

Question: What about the G2/M (MCF-7 cells [3]; 24 h) of the same compound?
Answer: 50.2 ± 3.6%

Question: What about the S (MCF-7 cells [3]; 24 h) of the same compound?
Answer: 3.4 ± 0.8%

Question: And the Sub-G1 (MCF-7 cells [3]; 24 h)?
Answer: 10.2 ± 1.2%

Question: And the G0/G1 (MCF-7 cells [3]; 48 h)?
Answer: 19.8 ± 1.9%

Question: And the G2/M (MCF-7 cells [3]; 48 h)?
Answer: 28.07 ± 0.2%

Question: And the S (MCF-7 cells [3]; 48 h)?
Answer: 4.1 ± 0.6%

Question: And the Sub-G1 (MCF-7 cells [3]; 48 h)?
Answer: 36.8 ± 3.7%

Question: And the G0/G1 (MCF-7 cells [3]; 72 h)?
Answer: 20.5 ± 0.2%

Question: And the G2/M (MCF-7 cells [3]; 72 h)?
Answer: 26.3 ± 0.2%

Question: What about the S (MCF-7 cells [3]; 72 h) of the same compound?
Answer: 7.06 ± 0.2%

Question: And the Sub-G1 (MCF-7 cells [3]; 72 h)?
Answer: 36.9 ± 0.2%

Question: What about the Kd (tubulin [4]) of the same compound?
Answer: 144 ± 2.8 µM

Question: With COc1cc([C@@H]2c3cc4c(cc3[C@@H](O[C@@H]3O[C@@H]5CO[C@@H](c6cccs6)O[C@H]5[C@H](O)[C@H]3O)[C@H]3COC(=O)[C@H]23)OCO4)cc(OC)c1O [teniposide] as the compound, how does the resistance to teniposide (CEM/VM-1-5 cells) read?
Answer: 400 fold

Question: Which resistance to vinblastine (CEM/VLB100 cells) does the source give for CC[C@]1(O)C[C@@H]2CN(CCc3c([nH]c4ccccc34)[C@@](C(=O)OC)(c3cc4c(cc3OC)N(C)[C@H]3[C@@](O)(C(=O)OC)[C@H](OC(C)=O)[C@]5(CC)C=CCN6CC[C@]43[C@@H]65)C2)C1 [vinblastine] here?
Answer: 270 fold

Source: patent publication US8889705B2, “Noscapine analogs and their use in treating cancers” (Emory University, priority 2007, dated 2014)
